Values of other authors in patent US20220143119A1, “CROTON LECHLERI COMPOSITIONS FOR USE IN THE TREATMENT OF SKIN CANCER” (ALPHYN BIOLOGICS, LLC, priority 2019, published 2022).

Test system: human melanoma SK23

## COc1ccc2c(=O)oc3c(OC)cc(CCN(C)C)c4c(=O)oc1c2c34 [taspine]
  inhibition against human melanoma SK23: exhibits inhibition
